Key:
[1] = Oral bioavailability in human at 500 mg administered as single dose; assay type: ADME, organism-based; details: in vivo
[2] = Elimination half life in human at 500 mg, po administered as single dose; assay type: ADME, organism-based; details: in vivo
[3] = Cmax in human at 500 mg, po administered as single dose; assay type: ADME, organism-based; design: dose 500 mg, route oral; details: in vivo
Homo sapiens [4] = test: AUC in human at 500 mg, po administered as single dose; assay type: ADME, organism-based, Plasma; details: in vivo
[5] = Tmax in human at 500 mg, po administered as single dose; assay type: ADME, organism-based; details: in vivo
[6] = Lipophilicity, log D at pH 8.0; assay type: physicochemical; details: buffer
[7] = Cmax in human at 150 mg, po administered as single dose; assay type: ADME, organism-based; design: dose 150 mg, route oral; details: in vivo
[8] = Elimination half life in human at 150 mg, po administered as single dose; assay type: ADME, organism-based; details: in vivo
[9] = Oral bioavailability in human at 150 mg administered as single dose; assay type: ADME, organism-based; details: in vivo
[10] = Tmax in human at 150 mg, po administered as single dose; assay type: ADME, organism-based; details: in vivo
Homo sapiens [11] = test: AUC in human at 150 mg, po administered as single dose; assay type: ADME, organism-based, Plasma; details: in vivo

Row | SMILES | bioavailability [1] | half-life [2] | Cmax [3] | AUC (Homo sapiens [4]) | Tmax [5] | logD [6] | Cmax [7] | half-life [8] | bioavailability [9] | Tmax [10] | AUC (Homo sapiens [11])
1 | CC[C@H]1OC(=O)[C@H](C)[C@@H](O[C@H]2C[C@](C)(OC)[C@H](O)[C@@H](C)O2)[C@H](C)[C@@H](O[C@@H]2O[C@@H](C)C[C@@H](N(C)C)[C@@H]2O)[C@](C)(O)C[C@@H](C)C(=O)[C@H](C)[C@@H](O)[C@]1(C)O [ERYTHROMYCIN A DIHYDRATE] | 18% | 1.5 h | 1900 ng/mL | 5800 ng·h/mL | 1 h |  |  |  |  |  | 
2 | CC[C@H]1OC(=O)[C@H](C)[C@@H](O[C@H]2C[C@@](C)(OC)[C@@H](O)[C@H](C)O2)[C@H](C)[C@@H](O[C@@H]2O[C@H](C)C[C@H](N(C)C)[C@H]2O)[C@](C)(OC)C[C@@H](C)C(=O)[C@H](C)[C@@H](O)[C@]1(C)O [CLARITHROMYCIN] | 55% | 4.9 h | 2410 ng/mL | 18900 ng·h/mL | 2 h | 3.9 |  |  |  |  | 
3 | CC[C@H]1OC(=O)[C@H](C)[C@@H](O[C@H]2C[C@@](C)(OC)[C@@H](O)[C@H](C)O2)[C@H](C)[C@@H](O[C@@H]2O[C@H](C)C[C@H](N(C)C)[C@H]2O)[C@](C)(O)C[C@@H](C)/C(=N\OCOCCOC)[C@H](C)[C@@H](O)[C@]1(C)O [ROXITHROMYCIN] |  |  |  |  |  | 2.5 | 7900 ng/mL | 10.5 h | 72% | 2.2 h | 81000 ng·h/mL
